Values after ≈ are worked out from the molar mass of the structure shown. Counter-ions that a name gives are not always drawn. Like-named read-outs stand apart in the source and are kept apart here.
Columns and labels:
[1] = test system: H. pylori; assay: MIC testing by broth dilution, H. pylori; type: cell-based, Helicobacter pylori; conditions: 24 h, read-out: MIC (μM) H. pylori
Procedure: (§1) A standard broth dilution protocol was used in 96 well microplates containing a standard dilution of the microorganism to be tested in 100 microliters of the appropriate medium. Appropriate medium: E. coli, LB medium; Staphylococcus strains, Trypticase Soy; and for H. pylori and C. jejuni, Brain Heart Infusion. The compounds to be tested were set at 32 μg/ml in 200 microliters in well one and then serially diluted to provide a range from 32 to 0.06. The wells were scored visually at 24 h. The well where there was no growth was recorded as the MIC. Clostridium difficile was tested by agar diffusion and disk diffusion (Kirby Bower) methods under anaerobic conditions on Wilkins Chalgrin agar. In these assays, zone of inhibited growth was measured and compared by relative ratio to the zone recorded for NTZ.
(§2) Representative compounds of the invention were tested in a series of assays against a series of organisms as described above. […] The organisms tested include, C. difficile, H. pylori, C. jejuni, MRSA, S. epidermidis, and E. coli. S. epidermidis and E. coli were tested in the plank and biofilm assay. A disk diffusion assay was also used for C. difficile. Direct PFOR enzyme assays were also performed. All analogues and derivatives were not tested on every organism in every type of assay (the “-” in each table means that it was not tested).

[2] = test system: MRSA; assay: MIC testing by broth dilution, MRSA; type: cell-based, Staphylococcus aureus; conditions: 24 h, read-out: MIC (μM) MRSA
Procedure: as §1, §2

[3] = test system: S. epidermidis; assay: MIC testing by broth dilution, S. epidermidis plank; type: cell-based, Staphylococcus epidermidis; conditions: 24 h, read-out: MIC (μM) S. epidermidis Plank
Procedure: as §1, §2

[4] = test system: C. jejuni; assay: MIC testing by broth dilution, C. jejuni; type: cell-based, Campylobacter jejuni; conditions: 24 h, read-out: MIC (μM) C. jejuni
Procedure: as §1, §2

[5] = test system: S. epidermidis biofilm; assay: S. epidermidis biofilm assay (activity tables); type: cell-based, Staphylococcus epidermidis
Procedure: Staphylococcal strains were cultured overnight in TSB at 37° C. with shaking, diluted in fresh medium to an OD600 of 0.01 and 200 W was dispensed into sterile flat bottom polystyrene 96 well microtiter plates (Costar 3596, Corning Inc.). […] Each compound and dilution was tested in triplicate. The plates were incubated overnight at 37° C. in a humidified incubator, without shaking and both growth and biofilm accumulation were determined at 16 h.
Following recording of turbidities, the culture medium was aspirated and the wells were washed three times with distilled water, blotted on paper towels, and fixed with 75% ethanol for 10 minutes.
To visualize biofilm material, 0.5% crystal violet was added to each well and after 5 minutes was removed and the wells washed three times with distilled water. Plates were read using a microplate reader at a wavelength of 570 nm. The dye was then extracted by adding 200 W of 95% ethanol, and the absorbance was read again at 570 nm. All assays were performed in triplicate and the mean and standard deviation determined. […]
as §2

[6] = test system: E. coli biofilm; assay: E. coli biofilm assay (activity tables); type: cell-based, Escherichia coli; conditions: read-out: MIC (μM) E. coli Biofilm
Procedure: A quantitative biofilm assay was used to determine the effect of NTZ on biofilm formation (41). Strain 042 was grown overnight at 37° C. with shaking and inoculated 1:100 in 200 μl culture medium in Costar 96-well, flat-bottom, polystyrene microtiter plates containing appropriate concentrations of NTZ. Plates were incubated statically at 37° C. in a humidified incubator. At 24 h, bacterial growth was measured by either transferring […] aliquots to another microtiter plate to determine turbidity or by diluting 100 μl aliquots 1:100 in 9.9 ml PBS for quantitative plate counts on LB medium. Bacterial counts in triplicate are reported as cfu/ml. Biofilm was visualized following staining with 0.5% crystal violet (41) and the absorbance was read at 570 nm using a microplate reader (Molecular Dynamics). All experiments were in triplicate and reported as mean and standard deviation.
as §1, §2

[7] = test system: E. coli; assay: MIC testing by broth dilution, E. coli plank; type: cell-based, Escherichia coli; conditions: 24 h, read-out: MIC (μM) E. coli Plank
Procedure: as §1, §2

[8] = test system: C. difficile; assay: Disk diffusion (Kirby Bower), C. difficile; type: cell-based, Clostridium difficile; conditions: zone of inhibited growth as relative ratio to the zone for NTZ
Procedure: as §1, §2

[9] = broth dilution, Brain Heart Infusion

Structure (SMILES) | MIC (μM) S. epidermidis Biofilm [5] | MIC [1, 9] | MIC ([2]; broth dilution, Trypticase Soy) | MIC ([3]; broth dilution, Trypticase Soy) | MIC [4, 9] | MIC ([6]; biofilm) | MIC ([7]; broth dilution, LB medium) | Disk Diffusion (%) C. difficile [8] | also measured
N[C@@H](Cc1ccccc1)C(=O)Nc1ncc([N+](=O)[O-])s1 [VPC16a1028, (S)-2-Amino-N-(5-nitrothiazol-2-yl)-3-phenylpropanamide hydrochloride] | 97.3 µM | – | – | – | – | – | – | – | MIC ([1]; Helicobacter pylori): 18.3 µM; MIC ([2]; Staphylococcus aureus, MRSA): 97.3 µM; MIC ([3]; Staphylococcus epidermidis): 97.3 µM; MIC ([4]; Campylobacter jejuni): 36.5 µM; MIC ([6]; Escherichia coli): 48.7 µM; MIC ([7]; Escherichia coli): 97.3 µM
Cc1ncc([N+](=O)[O-])n1CCOC(=O)CCCC(=O)Nc1ncc([N+](=O)[O-])s1 [VPC161277] | 2.4 µM (≈ 0.99 µg/mL) | 1.8 µM (≈ 0.742 µg/mL) | 77.6 µM (≈ 32 µg/mL) | 77.6 µM (≈ 32 µg/mL) | 29.1 µM (≈ 12 µg/mL) | 77.6 µM (≈ 32 µg/mL) | 77.6 µM (≈ 32 µg/mL) | – | –
CCCC(=O)Nc1ncc([N+](=O)[O-])s1 [VPC16b1045] | 4.6 µM (≈ 0.99 µg/mL) | 0.5 µM (≈ 0.108 µg/mL) | 148.7 µM (≈ 32 µg/mL) | 37.2 µM (≈ 8.01 µg/mL) | 2.1 µM (≈ 0.452 µg/mL) | 148.7 µM (≈ 32 µg/mL) | 148.7 µM (≈ 32 µg/mL) | – | –
O=C(Nc1ncc([N+](=O)[O-])s1)c1ccc(F)cc1C(F)(F)F [VPC161127] | 13.4 µM (≈ 4.49 µg/mL) | 3.4 µM (≈ 1.14 µg/mL) | 8.9 µM (≈ 2.98 µg/mL) | 23.9 µM (≈ 8.01 µg/mL) | 23.9 µM (≈ 8.01 µg/mL) | 95.5 µM (≈ 32 µg/mL) | 95.5 µM (≈ 32 µg/mL) | – | –
CC(C)(C(=O)Nc1ncc([N+](=O)[O-])s1)C(=O)Nc1ncc([N+](=O)[O-])s1 [VPC16b1048] | 41.4 µM (≈ 16 µg/mL) | 20.7 µM (≈ 8 µg/mL) | 82.8 µM (≈ 32 µg/mL) | 82.8 µM (≈ 32 µg/mL) | 82.8 µM (≈ 32 µg/mL) | 82.8 µM (≈ 32 µg/mL) | 82.8 µM (≈ 32 µg/mL) | – | –
O=C(O)CCCC(=O)Nc1ncc([N+](=O)[O-])s1 [VPC161273] | 123.4 µM (≈ 32 µg/mL) | 5.8 µM (≈ 1.5 µg/mL) | 123.4 µM (≈ 32 µg/mL) | – | 123.4 µM (≈ 32 µg/mL) | 61.7 µM (≈ 16 µg/mL) | 123.4 µM (≈ 32 µg/mL) | – | –
O=C(CCCc1ccccc1)Nc1ncc([N+](=O)[O-])s1 [VPC16a1020] | – | 13.8 µM (≈ 4.02 µg/mL) | 109.8 µM (≈ 32 µg/mL) | 109.8 µM (≈ 32 µg/mL) | 2.6 µM (≈ 0.757 µg/mL) | 54.9 µM (≈ 16 µg/mL) | 109.8 µM (≈ 32 µg/mL) | 33 ± 3% | –
Nc1ccccc1C(=O)Nc1ncc([N+](=O)[O-])s1 [VPC162055] | – | 2.4 µM (≈ 0.634 µg/mL) | 121.1 µM (≈ 32 µg/mL) | 90.8 µM (≈ 24 µg/mL) | 11.4 µM (≈ 3.01 µg/mL) | – | 45.4 µM (≈ 12 µg/mL) | 83% | –
NCCCCOc1ccccc1C(=O)Nc1ncc([N+](=O)[O-])s1.O=C(O)C(F)(F)F [VPC162096TFA] | – | 1.7 µM | 71.0 µM | 35.5 µM | 6.7 µM | – | 71.0 µM | 111% | –
CC(C)(C)OC(=O)COc1ccccc1C(=O)Nc1ncc([N+](=O)[O-])s1 [VPC162035, tert-butyl 2-(2-(5-nitrothiazol-2-ylcarbamoyl)phenoxy)acetate] | – | – | – | – | – | – | – | 0% | MIC ([1]; Helicobacter pylori, broth dilution, Brain Heart Infusion): 1 µM (≈ 0.379 µg/mL); MIC ([2]; Staphylococcus aureus, MRSA, broth dilution, Trypticase Soy): 84.3 µM (≈ 32 µg/mL); MIC ([3]; Staphylococcus epidermidis, broth dilution, Trypticase Soy): 84.3 µM (≈ 32 µg/mL); MIC ([4]; Campylobacter jejuni, broth dilution, Brain Heart Infusion): 84.4 µM (≈ 32 µg/mL); MIC ([7]; Escherichia coli, broth dilution, LB medium): 84.3 µM (≈ 32 µg/mL)
CC(C)(C)OC(=O)Nc1ccccc1C(=O)Nc1ncc([N+](=O)[O-])s1 [VPC162047, tert-Butyl 2-(5-nitrothiazol-2-ylcarbamoyl)phenylcarbamate] | – | – | – | – | – | – | – | 83% | MIC ([1]; Helicobacter pylori): 0.3 µM (≈ 0.109 µg/mL); MIC ([2]; Staphylococcus aureus, MRSA): 5.5 µM (≈ 2 µg/mL); MIC ([3]; Staphylococcus epidermidis): 5.5 µM (≈ 2 µg/mL); MIC ([4]; Campylobacter jejuni): 27.4 µM (≈ 9.98 µg/mL); MIC ([7]; Escherichia coli): 87.8 µM (≈ 32 µg/mL)

Reference: US8835644B2, “Broad spectrum benzothiophene-nitrothiazolide and other antimicrobials” (University of Virginia Patent Foundation, priority 2009, dated 2014)
